Measured values published in patent US7439396B2, “Pharmaceutical/cosmetic compositions comprising novel ligands that activate RAR receptors” (Galderma Research & Development, priority 2003, dated 2008).

How the values were obtained:
Type in all cases: cell-based
[1] = target: T1, RAR gamma (Homo sapiens, UniProt P13631); test: Transactivation test, HeLa cells stably transfected with RAR gamma ER-DBD and ERE-luciferase reporter; conditions: for AC50: at the reference ligand concentration that gives 80% activation; for Kd: crossed curves against reference antagonist, Schild regression, read-out: RAR gamma Kd app
T1 sequence (P13631 185-419 limits assumed): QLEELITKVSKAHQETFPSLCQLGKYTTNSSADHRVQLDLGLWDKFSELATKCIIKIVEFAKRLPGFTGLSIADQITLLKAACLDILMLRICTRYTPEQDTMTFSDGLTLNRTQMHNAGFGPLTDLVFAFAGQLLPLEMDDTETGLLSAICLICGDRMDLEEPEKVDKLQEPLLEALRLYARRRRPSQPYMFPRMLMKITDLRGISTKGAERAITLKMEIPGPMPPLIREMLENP
Procedure: (§1) The activation of receptors with an agonist (activator) in HeLa cells leads to the expression of a reporter gene, luciferase, which, in the presence of a substrate, generates light. The activation of the receptors may thus be measured by quantifying the luminescence produced after incubating the cells in the presence of a reference antagonist. The activating products displace the antagonist from its site, thus permitting activation of the receptor. The activity is measured by quantifying the increase in light produced. This measurement makes it possible to determine the activating activity of the compounds according to the invention.
(§2) In this study, a constant is determined which is the affinity of the molecule for the receptor. Since this value can fluctuate depending on the basal activity and the expression of the receptor, it is referred to as the Kd apparent (KdApp).
(§3) To determine this constant, “crossed curves” of the test product against a reference antagonist, 4-(5,5-dimethyl-8-p-tolyl-5,6-dihydro-2-naphthalen-2-ylethynyl)benzoic acid, are performed in 96-well plates. The test product is used at 10 concentrations and the reference antagonist at 7 concentrations. In each well, the cells are in contact with a concentration of the test product and a concentration of the reference antagonist, 4-(5,5-dimethyl-8-p-tolyl-5,6-dihydro-2-naphthalen-2-ylethynyl)benzoic acid. Measurements are also taken for the total agonist (4-[2-(5,5,8,8-tetramethyl-5,6,7,8-tetrahydro-2-naphthyl)propenyl]benzoic acid) and inverse agonist, 4-{(E)-3-[4-(4-tert-butylphenyl)-5,5,8,8-tetramethyl-5,6,7,8-tetrahydro-2-naphthyl]-3-oxopropenyl}benzoic acid, controls.
(§4) These crossed curves make it possible to determine the AC50 values (concentration at which 50% activation is observed) for the reference ligand at various concentrations of test product. These AC50 values are used to calculate the Schild regression by plotting a straight line corresponding to the Schild equation (“Quantitation in Receptor Pharmacology” Terry P. Kenakin, Receptors and Channels, 2001, 7, 371-385).
(§5) In the case of an agonist, an AC50 value (concentration that gives 50% of the activity) is calculated by plotting the curve of the product at the concentration of the reference ligand that gives 80% activation.
(§6) The HeLa cell lines used are stable transfectants containing the plasmids ERE-μGlob-Luc-SV-Neo (reporter gene) and RAR (α, β, γ) ER-DBD-puro. These cells are inoculated into 96-well plates at a rate of 10 000 cells per well in 100 μl of DMEM medium without phenol red, and supplemented with 10% defatted calf serum. […]
(§7) The culture medium is removed by turning over and 100 μl of a 1:1 PBS/luciferin mixture is added to each well. After 5 minutes, the plates are read using the luminescence reader.

[2] = target: T2, RAR beta (Homo sapiens, UniProt P10826); test: Transactivation test, HeLa cells stably transfected with RAR beta ER-DBD and ERE-luciferase reporter; conditions: for AC50: at the reference ligand concentration that gives 80% activation; for Kd: crossed curves against reference antagonist, Schild regression, read-out: RAR beta Kd app
T2 sequence (P10826 183-417 limits assumed): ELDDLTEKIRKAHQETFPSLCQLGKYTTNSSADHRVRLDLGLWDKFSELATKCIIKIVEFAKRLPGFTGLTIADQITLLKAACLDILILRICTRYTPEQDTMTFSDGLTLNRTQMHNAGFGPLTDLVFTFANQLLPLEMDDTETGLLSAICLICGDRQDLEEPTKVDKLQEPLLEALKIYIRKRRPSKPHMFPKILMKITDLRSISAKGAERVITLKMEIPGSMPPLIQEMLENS
Procedure: as §1, §2, §3, §4, §5, §6, §7

[3] = target: T3, RAR alpha (Homo sapiens, UniProt P10276); test: Transactivation test, HeLa cells stably transfected with RAR alpha ER-DBD and ERE-luciferase reporter
T3 sequence (P10276 183-417 limits assumed): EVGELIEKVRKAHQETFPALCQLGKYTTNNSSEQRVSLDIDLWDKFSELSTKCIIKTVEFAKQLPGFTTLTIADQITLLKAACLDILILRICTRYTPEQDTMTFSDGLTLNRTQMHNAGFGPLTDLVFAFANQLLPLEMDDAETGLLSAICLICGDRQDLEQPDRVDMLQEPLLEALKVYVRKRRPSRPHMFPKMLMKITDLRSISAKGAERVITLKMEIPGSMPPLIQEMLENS
Procedure: as §1
In this study, a constant is determined which is the affinity of the molecule for the receptor. […]
as §4
In the case of an agonist, an AC50 value (concentration that gives 50% of the activity) is calculated by plotting the curve of the product at the concentration of the reference ligand that gives 80% activation. […]

AC50 [1]	Kd [1]	AC50 [2]	Kd [2]	AC50 ([3]; at the reference ligand concentration that gives 80% activation)	Kd ([3]; crossed curves against reference antagonist, Schild regression, read-out: RAR alpha Kd app)	Compound
4 nM	4 nM	1000 nM	500 nM	5000 nM	5000 nM	CCN(CC)c1ccc(C(COc2ccc(C(=O)O)c(O)c2)=NO)cc1C(C)(C)C [Ex 2, 4-[2-(3-tert-Butyl-4-diethylaminophenyl)-2-hydroxyiminoethoxy]-2-hydroxybenzoic acid]
80 nM	60 nM	2500 nM	500 nM	–	–	CCN(CC)c1ccc(C(COc2ccc(C(=O)O)cc2)=NO)cc1C(C)(C)C [Ex 1, 4-[2-(3-tert-Butyl-4-diethylaminophenyl)-2-hydroxyiminoethoxy]benzoic acid]
